{
  "source": "PubChem BioAssay AID1845194",
  "about": "(Molecular Pharmacology Branch, DTP, NCI, 2023);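 further: spheroids exposed to compound for 7 days before viability readout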;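 on viability, T/C: luminescent signal taken as surrogate of viable cell content; 100% = DMSO vehicle control viability and lower means growth inhibition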",
  "tested_on": "287954-098-R-J1 tumor spheroid viability",
  "assay": "Anticancer human tumor 287954-098-R-J1 patient-derived Ewing sarcoma cell line growth inhibition",
  "settings": "spheroids with HUVEC and MSC; for IC50: curve of first compound; for viability, T/C: stronger effect = lower value",
  "outline": "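Complex tumor spheroids combined malignant cells with endothelial cells and mesenchymal stem cells. DNA-damaging drugs and DNA repair inhibitors were tested alone and in combination, at half-log dilutions down from clinical Cmax (top 10 microM if Cmax unknown), 0.25% DMSO final.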",
  "data": [
    {"smiles": "[2H]c1nc(C)nc([2H])c1-c1cc(NC[C@@H](C)c2cccc3c(C(=O)NC)ccnc23)ncn1", "note": "+ Cn1nnc2c(C(N)=O)ncn2c1=O", "values": [
      {"measurement": "IC50", "setting": "second compound 1 µM", "result": "> 10", "unit": "µM"},
      {"measurement": "IC50", "setting": "second compound 3.16 µM", "result": "> 10", "unit": "µM"},
      {"measurement": "IC50", "setting": "second compound 10 µM", "result": "> 10", "unit": "µM"},
      {"measurement": "IC50", "setting": "second compound 31.6 µM", "result": "> 10", "unit": "µM"},
      {"measurement": "IC50", "setting": "second compound 100 µM", "result": "> 10", "unit": "µM"},
      {"measurement": "viability, T/C", "setting": "second compound 1 µM, first compound 0.0316 µM", "result": 104, "unit": "%"},
      {"measurement": "viability, T/C", "setting": "second compound 1 µM, first compound 0.1 µM", "result": 103, "unit": "%"},
      {"measurement": "viability, T/C", "setting": "second compound 1 µM, first compound 0.316 µM", "result": 106, "unit": "%"},
      {"measurement": "viability, T/C", "setting": "second compound 1 µM, first compound 1 µM", "result": 97.6, "unit": "%"},
      {"measurement": "viability, T/C", "setting": "second compound 1 µM, first compound 3.16 µM", "result": 99.5, "unit": "%"},
      {"measurement": "viability, T/C", "setting": "second compound 1 µM, first compound 10 µM", "result": 101, "unit": "%"},
      {"measurement": "viability, T/C", "setting": "second compound 3.16 µM, first compound 0.0316 µM", "result": 106, "unit": "%"},
      {"measurement": "viability, T/C", "setting": "second compound 3.16 µM, first compound 0.1 µM", "result": 93.9, "unit": "%"},
      {"measurement": "viability, T/C", "setting": "second compound 3.16 µM, first compound 0.316 µM", "result": 99.3, "unit": "%"},
      {"measurement": "viability, T/C", "setting": "second compound 3.16 µM, first compound 1 µM", "result": 106, "unit": "%"},
      {"measurement": "viability, T/C", "setting": "second compound 3.16 µM, first compound 3.16 µM", "result": 107, "unit": "%"},
      {"measurement": "viability, T/C", "setting": "second compound 3.16 µM, first compound 10 µM", "result": 99.3, "unit": "%"},
      {"measurement": "viability, T/C", "setting": "second compound 10 µM, first compound 0.0316 µM", "result": 101, "unit": "%"},
      {"measurement": "viability, T/C", "setting": "second compound 10 µM, first compound 0.1 µM", "result": 100, "unit": "%"},
      {"measurement": "viability, T/C", "setting": "second compound 10 µM, first compound 0.316 µM", "result": 99.7, "unit": "%"},
      {"measurement": "viability, T/C", "setting": "second compound 10 µM, first compound 1 µM", "result": 104, "unit": "%"},
      {"measurement": "viability, T/C", "setting": "second compound 10 µM, first compound 3.16 µM", "result": 103, "unit": "%"},
      {"measurement": "viability, T/C", "setting": "second compound 10 µM, first compound 10 µM", "result": 105, "unit": "%"},
      {"measurement": "viability, T/C", "setting": "second compound 31.6 µM, first compound 0.0316 µM", "result": 106, "unit": "%"},
      {"measurement": "viability, T/C", "setting": "second compound 31.6 µM, first compound 0.1 µM", "result": 103, "unit": "%"},
      {"measurement": "viability, T/C", "setting": "second compound 31.6 µM, first compound 0.316 µM", "result": 102, "unit": "%"},
      {"measurement": "viability, T/C", "setting": "second compound 31.6 µM, first compound 1 µM", "result": 103, "unit": "%"},
      {"measurement": "viability, T/C", "setting": "second compound 31.6 µM, first compound 3.16 µM", "result": 98.8, "unit": "%"},
      {"measurement": "viability, T/C", "setting": "second compound 31.6 µM, first compound 10 µM", "result": 106, "unit": "%"},
      {"measurement": "viability, T/C", "setting": "second compound 100 µM, first compound 0.0316 µM", "result": 99.7, "unit": "%"},
      {"measurement": "viability, T/C", "setting": "second compound 100 µM, first compound 0.1 µM", "result": 103, "unit": "%"},
      {"measurement": "viability, T/C", "setting": "second compound 100 µM, first compound 0.316 µM", "result": 97.7, "unit": "%"},
      {"measurement": "viability, T/C", "setting": "second compound 100 µM, first compound 1 µM", "result": 98.2, "unit": "%"},
      {"measurement": "viability, T/C", "setting": "second compound 100 µM, first compound 3.16 µM", "result": 97.6, "unit": "%"},
      {"measurement": "viability, T/C", "setting": "second compound 100 µM, first compound 10 µM", "result": 94.4, "unit": "%"}
    ]},
    {"smiles": "CC(C)n1c(=O)n(C)c2cnc3cc(F)c(-c4ccc(OCCCN5CCCCC5)nc4)cc3c21", "note": "+ COc1cc2c(cc1O)CCNC21CSC2c3c(OC(C)=O)c(C)c4c(c3C(COC1=O)N1C(O)C3Cc5cc(C)c(OC)c(O)c5C(C21)N3C)OCO4", "values": [
      {"measurement": "IC50", "setting": "second compound 30 pM", "result": 4.53, "unit": "µM"},
      {"measurement": "IC50", "setting": "second compound 94.9 pM", "result": "< 0.0316", "unit": "µM"},
      {"measurement": "IC50", "setting": "second compound 0.0003 µM", "result": "< 0.0316", "unit": "µM"},
      {"measurement": "IC50", "setting": "second compound 0.000949 µM", "result": "< 0.0316", "unit": "µM"},
      {"measurement": "IC50", "setting": "second compound 0.003 µM", "result": "< 0.0316", "unit": "µM"},
      {"measurement": "viability, T/C", "setting": "second compound 30 pM, first compound 0.0316 µM", "result": 44.4, "unit": "%"},
      {"measurement": "viability, T/C", "setting": "second compound 30 pM, first compound 0.1 µM", "result": 84.8, "unit": "%"},
      {"measurement": "viability, T/C", "setting": "second compound 30 pM, first compound 0.316 µM", "result": 62.4, "unit": "%"},
      {"measurement": "viability, T/C", "setting": "second compound 30 pM, first compound 1 µM", "result": 85.3, "unit": "%"},
      {"measurement": "viability, T/C", "setting": "second compound 30 pM, first compound 3.16 µM", "result": 81.3, "unit": "%"},
      {"measurement": "viability, T/C", "setting": "second compound 30 pM, first compound 10 µM", "result": 2.07, "unit": "%"},
      {"measurement": "viability, T/C", "setting": "second compound 94.9 pM, first compound 0.0316 µM", "result": 14.9, "unit": "%"},
      {"measurement": "viability, T/C", "setting": "second compound 94.9 pM, first compound 0.1 µM", "result": 14.4, "unit": "%"},
      {"measurement": "viability, T/C", "setting": "second compound 94.9 pM, first compound 0.316 µM", "result": 8.68, "unit": "%"},
      {"measurement": "viability, T/C", "setting": "second compound 94.9 pM, first compound 1 µM", "result": 14.2, "unit": "%"},
      {"measurement": "viability, T/C", "setting": "second compound 94.9 pM, first compound 3.16 µM", "result": 8.71, "unit": "%"},
      {"measurement": "viability, T/C", "setting": "second compound 94.9 pM, first compound 10 µM", "result": 0.47, "unit": "%"},
      {"measurement": "viability, T/C", "setting": "second compound 0.0003 µM, first compound 0.0316 µM", "result": 1.47, "unit": "%"},
      {"measurement": "viability, T/C", "setting": "second compound 0.0003 µM, first compound 0.1 µM", "result": 1.47, "unit": "%"},
      {"measurement": "viability, T/C", "setting": "second compound 0.0003 µM, first compound 0.316 µM", "result": 1.52, "unit": "%"},
      {"measurement": "viability, T/C", "setting": "second compound 0.0003 µM, first compound 1 µM", "result": 1.56, "unit": "%"},
      {"measurement": "viability, T/C", "setting": "second compound 0.0003 µM, first compound 3.16 µM", "result": 1.71, "unit": "%"},
      {"measurement": "viability, T/C", "setting": "second compound 0.0003 µM, first compound 10 µM", "result": 0.41, "unit": "%"},
      {"measurement": "viability, T/C", "setting": "second compound 0.000949 µM, first compound 0.0316 µM", "result": 0.31, "unit": "%"},
      {"measurement": "viability, T/C", "setting": "second compound 0.000949 µM, first compound 0.1 µM", "result": 0.27, "unit": "%"},
      {"measurement": "viability, T/C", "setting": "second compound 0.000949 µM, first compound 0.316 µM", "result": 0.36, "unit": "%"},
      {"measurement": "viability, T/C", "setting": "second compound 0.000949 µM, first compound 1 µM", "result": 0.6, "unit": "%"},
      {"measurement": "viability, T/C", "setting": "second compound 0.000949 µM, first compound 3.16 µM", "result": 0.33, "unit": "%"},
      {"measurement": "viability, T/C", "setting": "second compound 0.000949 µM, first compound 10 µM", "result": 0.36, "unit": "%"},
      {"measurement": "viability, T/C", "setting": "second compound 0.003 µM, first compound 0.0316 µM", "result": 0.18, "unit": "%"},
      {"measurement": "viability, T/C", "setting": "second compound 0.003 µM, first compound 0.1 µM", "result": 0.2, "unit": "%"},
      {"measurement": "viability, T/C", "setting": "second compound 0.003 µM, first compound 0.316 µM", "result": 0.18, "unit": "%"},
      {"measurement": "viability, T/C", "setting": "second compound 0.003 µM, first compound 1 µM", "result": 0.23, "unit": "%"},
      {"measurement": "viability, T/C", "setting": "second compound 0.003 µM, first compound 3.16 µM", "result": 0.25, "unit": "%"},
      {"measurement": "viability, T/C", "setting": "second compound 0.003 µM, first compound 10 µM", "result": 0.4, "unit": "%"}
    ]}
  ]
}
